# Experiments:
# [1] = system: WM35 melanoma cell line; assay: MTT assay, viability of WM35 cells; type: cell-based, human; conditions: for antiproliferative activity at 50 μM concentration: WM35, 50 μM, monitored at 24 and 72 h (Figure S263); for EC20 (logistic fit) / EC80 (logistic fit): WM35, MTT dose-response fit, treated daily for 3 days, SI figures; for IC50: MTT assay, cells treated daily for 3 days
# Method: (§1) The number of viable cells was indirectly determined by measuring the conversion of the tetrazolium salt MTT (3-{4,5-dimethilthiasol-2-il}-2,5-diphenyltetrasolium bromide, Sigma-Aldrich) to formazan by mitochondrial dehydrogenases. Cells were plated in 96-well multi-titer plates (10,000 cells per well density) in quadruplicates and were cultured for 3 days and treated by the compounds daily. Negative control group was treated with equal amount of vehicle solvent (DMSO) and positive control group was treated with 1 µg/mL doxorubicin. Cells were then incubated with 5 mg/mL MTT for 3 h, precipitated formazan crystals were dissolved in acidic isopropanol (10% 1 M HCl in isopropanol supplemented with 10% Triton X 100), and concentration of formazan was assessed colorimetrical way measuring absorbance at 565 nm.
# (§2) Logistic dose-response curves were fitted using the equation y = A2 + (A1-A2)/(1 + (x/x0)^p) where the parameters are: A1: initial value (ymin), A2: final value (ymax), x0: center (EC/IC50), and p is the calculated power. Fittings were carried out and parameters were calculated using Origin 8.6 (OriginLab Corporation, Northampton, MA, USA).
# [2] = system: non-cancerous HaCaT human keratinocytes; assay: MTT assay, viability of HaCaT keratinocytes; type: cell-based; parameters: EC20 (logistic fit) / EC80 (logistic fit): unit not given here; conditions: for EC20 (logistic fit) / EC80 (logistic fit): MTT dose-response fit, treated daily for 3 days, SI figures; for IC50: MTT assay, cells treated daily for 3 days
# Method: as §1, §2
# [3] = system: A2780 ovarian carcinoma cell line; assay: MTT assay, viability of A2780 cells; type: cell-based, human; conditions: for antiproliferative activity at 50 μM concentration: A2780, 50 μM, monitored at 24 and 72 h (Figure S262); for IC50: MTT assay, cells treated daily for 3 days
# Method: as §1, §2
# [4] = system: A2780 ovarian carcinoma cells; assay: SYTOX Green labeling, plasma membrane integrity; type: cell-based; conditions: A2780, 24 hrs incubation
# Description: (§3) 2.13. MitoProbe^TM DilC1(5) Assay and SYTOX Green Labeling
# (§4) Decrease in mitochondrial membrane potential is an early hallmark of apoptosis and the disruption of the plasma membrane integrity is characteristic for cellular necrosis. These events were investigated simultaneously using MitoProbe^TM DilC1(5) assay kit and SYTOX green (both from Molecular Probes/ThermoiFisher) staining, respectively. DilC1(5) (1,1′,3,3,3′,3′-hexamethylindodicarbo - cyanine iodide) is a fluorescent cyanine dye which penetrates cytoplasm with intact membrane and accumulates primarily in mitochondria depending on the mitochondrial membrane potential. […] SYTOX Green is a nucleic acid stain impermeant to live cells with intact plasma membrane, but it penetrates the compromised membrane of necrotic, dead cells resulting in a bright green fluorescent nuclear staining.
# (§5) Cells were plated in 96-well multi-titer plates (10,000 cells per well density) in quadruplicates and were incubated for 24 h with various concentrations of rac-19g. […] Finally, the excess of the dyes was removed, cells were gently washed in PBS, and fluorescence of DilC1(5) and SYTOX Green was measured at 630/680 nm and 490/520 nm (excitation/emission), respectively, using a FlexStation 3 (Molecular Devices) multimodal microplate reader.
# [5] = system: A2780 ovarian carcinoma cells; assay: MitoProbe DilC1(5) assay, mitochondrial membrane potential; type: cell-based, human; conditions: A2780, 24 hrs incubation
# Description: as §3, §4, §5
# [6] = system: A2780 ovarian carcinoma cells; assay: CyQUANT cell proliferation assay, total DNA content; type: cell-based, human; conditions: A2780, 24 hrs incubation
# Method: 2.14. CyQUANT® Cell Proliferation Assay
# CyQUANT assay assesses the cellular proliferation indirectly by directly determining the DNA content in a cell population using CyQUANT fluorescent dye. […] Therefore, it is suitable to asses DNA synthesis associated with cellular proliferation. Cells were plated in 96-well multi-titer plates (10,000 cells per well density) in quadruplicates and were incubated for 24 h with various concentrations of rac-19g, then assayed for cellular proliferation following the manufacturer’s protocol. Briefly, supernatants were gently removed and the plate was snap frozen and stored at −70 °C. Then plate was thawed, cells were lysed and incubated with CyQUANT dye. The excess of the dye was removed and fluorescence was measured at 490/520 nm (excitation/emission) using a FlexStation 3 (Molecular Devices) multimodal microplate reader.
# [7] = system: acute myeloid leukemia cells; parameters: method as in PMID 31744877; conditions: across 30 human cell lines; read-out: EC50, viability of acute myeloid leukemia cells; cited from earlier work
# [8] = system: chemoresistant forms of prostate cancer; parameters: method as in PMID 23423838; conditions: cited from earlier work
# [9] = A2780, MTT dose-response fit, treated daily for 3 days, SI figures
SMILES,antiproliferative activity at 50 μM concentration [1],EC20 (logistic fit) [1],EC80 (logistic fit) [1],EC20 (logistic fit) ([2]; HaCaT),EC80 (logistic fit) ([2]; HaCaT),antiproliferative activity at 50 μM concentration [3],"EC20 (logistic fit) [3, 9]",other results
"COc1cc(OC)cc([C@@H]2Oc3ccccc3[C@H]3OCCN[C@H]32)c1 (racemic) [rac-(4aS*,5R*,10bS*)-2d, (±)-(4aR*,5S*,10bR*)-5-(3,5-dimethoxyphenyl)-2,3,4,4a,5,10b-hexahydrochromeno[4,3-b][1,4]oxazine]",the most active,"14,15843 µM","53,361 µM",11.28,81.84,the most active,"10,79361 mM",IC50 [2]: 30.4 ± 49.8 µM
"COc1cc(C2Oc3ccccc3-c3sc(C)nc32)cc(OC)c1OC (racemic) [rac-3e, (±)-2-methyl-4-(3,4,5-trimethoxyphenyl)-4H-chromeno[3,4-d][1,3]thiazole]",,"0,11527 µM","39,68998 µM",3.395,11.45,,"1,58958 mM","IC50 ([1]; Homo sapiens, WM35, 72 h): 2.14 ± 1.85 µM; IC50 ([2]; Homo sapiens, HaCaT, 72 h): 6.23 ± 1.25 µM; IC50 ([3]; Homo sapiens, A2780, 72 h): 2.74 µM; IC50 [3]: 2.72 ± 0.48 µM; melting point: 113 to 115 °C"
"CCOC(=O)c1c(C)[nH]c2c1-c1ccccc1OC2c1ccc(OC)cc1 (racemic) [rac-4b, (±)-ethyl 2-methyl-4-(4-methoxyphenyl)-3,4-dihydrochromeno[3,4-b]pyrrole-1-carboxylate]",,"1,2746 µM","26,63177 µM",2.492,36.73,,"1,99005 mM",IC50 [1]: 5.83 ± 1.78 µM; IC50 [2]: 9.57 ± 8.77 µM; IC50 [3]: 4.84 ± 1.38 µM
"CCOC(=O)c1c(C)[nH]c2c1-c1ccccc1OC2c1ccc2ccccc2c1 (racemic) [rac-4g, (±)-ethyl 2-methyl-4-(naphthalen-2-yl)-3,4-dihydrochromeno[3,4-b]pyrrole-1-carboxylate]",,,,,,,,melting point: 149 to 151 °C
"CCOC(=O)c1c(C)[nH]c2c1-c1ccccc1OC2c1ccc(OC)c(OC)c1 (racemic) [rac-4c, (±)-ethyl 2-methyl-4-(3,4-dimethoxyphenyl)-3,4-dihydrochromeno[3,4-b]pyrrole-1-carboxylate]",,"1,55024 µM","43,44318 µM",0.9397,4.167,,"2,14809 mM",IC50 [1]: 8.21 ± 4.38 µM; IC50 [2]: 1.97 ± 0.29 µM; IC50 [3]: 5.34 ± 0.88 µM
"COc1ccc([C@@H]2Oc3ccccc3[C@@H]3OCCN[C@@H]23)cc1.Cl (racemic) [rac-(4aS*,5R*,10bR*)-2b, (±)-(4aR*,5S*,10bS*)-5-(4-methoxyphenyl)-2,3,4,4a,5,10b-hexahydrochromeno[4,3-b][1,4]oxazine hydrochloride]",the most active,"26,114 µM","43,39258 µM",7.569,38.76,the most active,"6,72446 mM",IC50 [2]: 17.1 ± 7.95 µM; IC50 [3]: 10.4 ± 2.71 µM
"Cc1nc2c(s1)-c1ccccc1OC2c1ccccc1 (racemic) [rac-3a, (±)-2-methyl-4-phenyl-4H-chromeno[3,4-d][1,3]thiazole]",much weaker activities,,,,,much weaker activities,,
"COc1ccc(C2Oc3ccccc3-c3sc(C)nc32)cc1OC (racemic) [rac-3c, (±)-2-methyl-4-(3,4-dimethoxyphenyl)-4H-chromeno[3,4-d][1,3]thiazole]",much weaker activities,,,,,much weaker activities,,
"O=C(CCl)N[C@@H]1[C@@H](O)c2ccccc2O[C@H]1c1ccc2ccccc2c1 (racemic) [rac-19g, (±)-2-chloro-N-[(2R*,3S*,4R*)-4-Hydroxy-2-(naphthalen-2-yl)-3,4-dihydro-2H-chromen-3-yl]acetamide]",,"1,26314 µM","9,68285 µM",,,,"0,01488 mM","integrity of the plasma membrane (SYTOX Green staining) [4]: intact (negative SYTOX Green staining); mitochondrial membrane potential [DilC1(5) staining] [5]: decreased the mitochondrial membrane potential; IC50 ([1]; Homo sapiens, WM35, 72 h): 3.5 ± 1.94 µM; IC50 ([2]; Homo sapiens, HaCaT, 72 h): 6.06 ± 3.3 µM; proliferation-associated DNA synthesis (CyQUANT Assay) [6]: inhibited proliferation-associated DNA synthesis; EC50 ([3]; Homo sapiens, 72 h, A2780, MTT dose-response fit, treated daily for 3 days, SI figures, read-out: EC50 (x0 of logistic fit) (converted)): 0.151 µM; IC50 ([3]; Homo sapiens, A2780, 72 h): 0.15 ± 0.14 µM"
"COc1ccc(C2Oc3ccccc3-c3sc(C)nc32)cc1 (racemic) [rac-3b, (±)-2-methyl-4-(4-methoxyphenyl)-4H-chromeno[3,4-d][1,3]thiazole]",much weaker activities,,,,,much weaker activities,,
CCCCCCCCCCCCCCCC(O)C(CO)NC(=O)CBr (stereo not shown) [SABRAC],,,,,,,,EC50 [7]: ~3 µM; growth of chemoresistant forms of prostate cancer [8]: inhibit the growth
CCCCCCCCCCCCCCCC(O)C(CO)NC(=O)CCl (stereo not shown) [SACLAC],,,,,,,,EC50 [7]: ~3 µM; growth of chemoresistant forms of prostate cancer [8]: inhibit the growth
"Cc1nc2c(s1)-c1ccccc1OC2c1ccc2ccccc2c1 (racemic) [rac-3g, (±)-2-methyl-4-(naphthalen-2-yl)-4H-chromeno[3,4-d][1,3]thiazole]",much weaker activities,,,,,much weaker activities,,melting point: 129 to 130 °C
"COc1cccc2c1C(=O)c1c(O)c3c(c(O)c1C2=O)C[C@@](O)(C(=O)CO)C[C@@H]3O[C@H]1C[C@H](N)[C@H](O)[C@H](C)O1 [Doxorubicin, reference compound]",,,,,,,,"IC50 ([1]; Homo sapiens, WM35, 72 h): 0.14 µM; IC50 ([2]; Homo sapiens, HaCaT, 72 h): 0.03 µM; IC50 ([3]; Homo sapiens, A2780, 72 h): 0.07 µM"

# From publication PMC7593906, “Synthesis and HPLC-ECD Study of Cytostatic Condensed O,N-Heterocycles Obtained from 3-Aminoflavanones” (Biomolecules, 2020)
